Reference: patent US10398747B2, “Composition comprising the extract of herbal combination for preventing or treating diabetic peripheral neuropathy” (DONG-A ST CO., LTD., priority 2011, dated 2019)

Experiments:
PC12 nerve cells = experiment: Growth of PC12 nerve cells (MTS assay); format: cell-based, rat; details: 48 hours
Protocol: For use in a test for ability to induce nerve cell growth, PC12 nerve cells were seeded at the same density per well into plates and incubated for 24 hours.

[1] = system: DRG (Dorsal root ganglion) nerve cells; experiment: Growth of neurites in rat-derived DRG nerve cells (neurite area under microscope); format: cell-based; details: rat embryo DRG cells, 48 hours
Protocol: For use in this test, DRG nerve cells were seeded at the same density into plates and incubated for 24 hours. Thereafter, the cells were washed with PBS and cultured for 48 hours in a culture medium in the absence or presence of a combination of the extract of Example 1 or Comparative Examples 1 to 10, and NGF. The nerve cells in each group were observed under a microscope to measure the area of the neurites grown therein.

TrkA (NGF receptor) = experiment: Phosphorylation of NGF receptor in PC12 nerve cells (Western blotting); format: cell-based, rat; details: 48 hours
Protocol: For use in this test, PC12 nerve cells were seeded at the same density per well into plates and incubated for 24 hours. The cells were washed with PBS and cultured for 48 hours in culture media supplemented with the herb extracts of Example 1 or Comparative Examples 1 to 10 or NGF. Thereafter, phosphorylated TrkA (NGF receptor) were detected using Western blotting, and quantitatively analyzed on the basis of the thickness of the detected bands.
NGF signaling starts with the binding of NGF to its receptor (Trk-A), which results in the phosphorylation of the receptor. Thus, an increased level of phosphorylated NGF receptors means the amplification of the NGF signaling pathway.

[2] = system: nerve growth factor (NGF); experiment: NGF level in sciatic nerve and salivary gland of ICR male mice with streptozotocin-induced type 1 diabetes (ELISA); format: in vivo, mouse; details: streptozotocin-diabetic ICR male mice
Protocol: (§1) ICR male mice, each weighing 25^˜30 g, were acclimated for one week at 22-24° C. at a relative humidity of 60-80%, with a standard diet and water fed thereto. Thereafter, a solution of streptozotocin in saline was intravenously administered once at a dose of 200 mg/kg to the mice to induce type 1 diabetes. Four weeks after the induction of diabetes, rats were divided into groups according to blood sugar level. The extracts prepared in the above Examples were orally administered once a day for 14 weeks at predetermined doses to the mice, while α-lipoic acid and Gabapentin were used as positive controls at a dose of 50 mg/kg and 100 mg/kg, respectively. Mice in each group were placed on a 58° C. hot plate, and examined for hyperalgesia to heat stimulus by measuring the latent time it took for the mice to feel a heat pain on their foot soles and jump.
Then, the mice were sacrificed to obtain the sciatic nerve and the salivary glands therefrom. The sciatic nerve and the salivary glands were processed in the same manner as in Test Example 1 and measured for NGF level by ELISA.

[3] = system: nerve growth factor (NGF); experiment: Test for in vivo level of nerve growth factor in normal mouse model (ELISA); details: normal male ICR mice
Protocol: Ability of the crude extract with 50% ethanol in Example 1 to induce the secretion of nerve growth factor in vivo was evaluates (O. Arrieta and J. Sotelo et al., Retinoic acid increased tissue and plasma contents of nerve growth factor and prevents neuropathy in diabetic mice. European Journal of Clinical Investigation (2005) 35).
Male ICR mice, each weighing 25-30 g, were acclimated for 1 week at 22-24° C. at a relative humidity of 60-80% while being fed with water and a standard diet. They were divided into groups according to weight. The extracts prepared in the above Examples were orally administered in predetermined amounts to the mice, with Gabapentin used as a positive control at a doe of 100 mg/kg. 16 hours after which blood was sampled from the mice. They were then sacrificed to obtain the sciatic nerve and the salivary glands.
After the blood samples were centrifuged at 10,000 rpm for 10 min, the levels of nerve growth factor in the plasma thus separated were measured by ELISA (ABS 440 nm). The sciatic nerve and the salivary glands were weighed and a solution containing 100 mM Tris-HCl, 1M NaCl, 2% BSA, 4 mM EDTA, 2.0% Trtion®X-100, 0.02% sodium azide, 0.1 mg/ml pepstatin A, 5 mg/ml aprotonin, 0.5 mg/ml antipain, 167 mg/ml benzamidine, and 5.2 mg/ml PMSF was added in amounts proportional to the weights, followed by homogenization. The homogenates were incubated for 15 min with 1N HCl in an amount of 1 μl/50 μl for oxidization and neutralized with 1N NaOH in an amount of 1 μl/50 μl. Centrifugation was performed at 10,000 rpm for 10 min to obtain supernatants. Like plasma, the sciatic nerve and the salivary glands were quantitatively analyzed for the level of nerve growth factor.

[4] = system: SD male rats with streptozotocin-induced type 1 diabetes; experiment: Tail-flick test, latent time to thermal pain, streptozotocin-diabetic SD rats; format: in vivo, rat
Protocol: (§2) The ability of the extracts to alleviate the pain caused by diabetic neuropathy was examined. In this regard, rats with streptozotocin-induced diabetes were separated and orally administered with the extracts at a predetermined dose once a day for 14 weeks, with α-lipoic acid 50 mg/kg and Gabapentin 100 mg/kg serving as positive controls. A Randall-Sellito test was performed to measure a threshold response to pressure on a paw. The latent time taken to respond to a thermal pain was measured using a tail-flick test. In order to evaluate the neurodegeneration which had progressed with the onset of diabetic neuropathy, the sciatic nerve taken from the rats of each group was fixed with formalin and observed under an electron microscope to measure the size and thickness of the myelin sheath, and the results are summarized in Table 9.
(§3) An increase in threshold to mechanical stimuli delineates an increase in threshold to pain. In the tail flick test, an increase in latent time to pain response corresponds to an increase in threshold to thermal stimuli, indicating the alleviation of pain.

[5] = system: nerve growth factor (NGF); experiment: NGF level in sciatic nerve of db/db male mice with type 2 diabetes (ELISA); format: in vivo, mouse
Protocol: (§4) db/db Male mice, each weighing 40^˜45 g, were acclimated for one week at 22-24° C. at a relative humidity of 60-80%, with a standard diet and water fed thereto. On the day of the 9th week after birth, the mice in which diabetes had been induced were selected. Four weeks later, mice suffering from type 2 diabetes were separated according to blood sugar level. The extracts prepared in the above Examples were orally administered once a day for 12 weeks at predetermined doses to the mice, while α-lipoic acid and gabapentin were used as positive controls at a dose of 50 mg/kg and 100 mg/kg, respectively. Mice in each group were placed on a 58° C. hot plate, and examined for hyperalgesia to heat stimulus by measuring the latent time it took for the mice to feel a heat pain on their foot soles and jump.
Then, the mice were sacrificed to obtain the sciatic nerve therefrom. The sciatic nerve was processed in the same manner as in Test Example 1 and its NGF level was measured by ELISA.

[6] = system: db/db male mice with type 2 diabetes; experiment: 58° C. hot plate test, db/db male mice with type 2 diabetes; format: in vivo, mouse
Protocol: as §4

[7] = system: SD male rats with streptozotocin-induced type 1 diabetes; experiment: Neurodegeneration: size and thickness of myelin sheath of sciatic nerve by electron microscope, streptozotocin-diabetic SD rats; format: in vivo, rat
Protocol: as §2

[8] = system: SD male rats with streptozotocin-induced type 1 diabetes; experiment: Randall-Sellito test, threshold response to pressure on a paw, streptozotocin-diabetic SD rats; format: in vivo, rat
Protocol: as §2, §3

[9] = system: nerve growth factor (NGF); experiment: NGF level in sciatic nerve and salivary gland of SD male rats with streptozotocin-induced type 1 diabetes (ELISA); format: in vivo, rat; details: streptozotocin-diabetic SD male rats
Protocol: SD male rats, each weighing 220^˜250 g, were acclimated for one week at 22-24° C. at a relative humidity of 60-80% with standard diet and water fed thereto. Thereafter, a solution of streptozotocin in saline was intravenously administered once at a dose of 50 mg/kg to the rats to induce type 1 diabetes. Four weeks after the induction of diabetes, rats were divided into groups according to blood sugar level. The extracts prepared in the above Examples were orally administered once a day for 8 weeks at predetermined doses to the rats, while α-lipoic acid and Gabapentin were used as positive controls at does of 50 mg/kg and 100 mg/kg, respectively. Then, they were sacrificed to obtain the sciatic nerve and the salivary glands. The sciatic nerve and the salivary glands were processed in the same manner as in Test Example 1 and measured for NGF level by ELISA.

[10] = system: ICR male mice with streptozotocin-induced type 1 diabetes; experiment: 58° C. hot plate test, ICR male mice with streptozotocin-induced type 1 diabetes; format: in vivo, mouse; details: streptozotocin-diabetic ICR male mice
Protocol: as §1

[11] = 50 mg/kg once a day for 14 weeks
[12] = 50 mg/kg once a day for 12 weeks
[13] = 50 mg/kg once a day for 8 weeks
[14] = oral 100 mg/kg once a day for 14 weeks
[15] = oral 100 mg/kg, 16 hours after dosing
[16] = oral 100 mg/kg once a day for 12 weeks
[17] = oral 100 mg/kg once a day for 8 weeks

Compound: NGF: nerve growth factor added to culture media
- Proliferative Effect on Nerve Cell (PC12 nerve cells; 2 ng/ml): 112 % of control
- Proliferative Effect on Nerve Cell (PC12 nerve cells; 50 ng/ml): 118 % of control
- Neurite Area of DRG Nerve Cell ([1]; NGF 2 ng/ml alone): 235 μm^2
- Neurite Area of DRG Nerve Cell ([1]; NGF 50 ng/ml alone): 461 μm^2
- Relative Amount of Phosphorylated NGF (TrkA (NGF receptor); NGF 2 ng/ml alone): 241 % of control
- Relative Amount of Phosphorylated NGF (TrkA (NGF receptor); NGF 50 ng/ml alone): 337 % of control

Compound: O=C(O)CCCCC1CCSS1 (stereo not drawn) [α-Lipoic acid]
- NGF Level Salivary Gland [2, 11]: 118.7 ng/mg
- NGF Level Sciatic Nerve [2, 11]: 5.7 pg/mg
- NGF Level in Salivary Gland ([3]; 50 mg/kg): 164.4 ng/mg
- NGF Level in Sciatic Nerve ([3]; 50 mg/kg): 5.0 pg/mg
- Latent Time to Pain Reaction [4, 11]: 7.4 s
- NGF Level in Sciatic Nerve [5, 12]: 7.6 pg/mg
- Latent Time to Pain Response on 58° C. Hot Plate [6, 12]: 15.4 s
- Size of Myelin sheath ([7]; 50 mg/kg): 11.2 μm
- Thickness of Myelin sheath ([7]; 50 mg/kg): 2.6 μm
- Pressure Pain Threshold [8, 11]: 150.0 g
- NGF Level Salivary Gland [9, 13]: 2.8 ng/mg
- NGF Level Sciatic Nerve [9, 13]: 13.8 pg/mg
- Latent Time to Pain Response on 58° C. Hot Plate [10, 11]: 31.1 s

Compound: NCC1(CC(=O)O)CCCCC1 [Gabapentin]
- NGF Level Salivary Gland [2, 14]: 117.1 ng/mg
- NGF Level Sciatic Nerve [2, 14]: 5.5 pg/mg
- NGF Level in Plasma [3, 15]: 610.4 pg/mL
- NGF Level in Salivary Gland [3, 15]: 193.1 ng/mg
- NGF Level in Sciatic Nerve [3, 15]: 4.2 pg/mg
- Latent Time to Pain Reaction [4, 14]: 7.7 s
- NGF Level in Sciatic Nerve [5, 16]: 7.2 pg/mg
- Latent Time to Pain Response on 58° C. Hot Plate [6, 16]: 16.1 s
- Size of Myelin sheath ([7]; 100 mg/kg): 10.4 μm
- Thickness of Myelin sheath ([7]; 100 mg/kg): 2.2 μm
- Pressure Pain Threshold [8, 14]: 137.7 g
- NGF Level Salivary Gland [9, 17]: 2.4 ng/mg
- NGF Level Sciatic Nerve [9, 17]: 14.9 pg/mg
- Latent Time to Pain Response on 58° C. Hot Plate [10, 14]: 33.0 s
